Values quoted from earlier work as cited in US20070010584A1, “Compositions and methods for orthostatic intolerance” (priority 2003, published 2007).
Read-outs that look alike come from different tables or passages of the source.

Tests used:
[1] = in vivo
[2] = tested on: patients with OI and orthostatic tachycardia; settings: in vivo
[3] = clonidine 0.1 mg PO, 13 patients with OI

N[C@H](C(=O)O)[C@H](O)c1ccc(O)c(O)c1 [DOPS, Threo-3-(3,4-dihydroxyphenyl)serine]
time of peak NE levels (after ingestion of DOPS): about 5 hours
duration of increased plasma levels of DOPS and NE (after oral administration of DOPS): at least 12 hours
time of peak plasma levels of DOPS (after oral ingestion): about 3 hours

COc1ccc(OC)c(C(O)CNC(=O)CN)c1 (stereo not drawn) [Midodrine]
half-life [1]: 30 min
supine and standing heart rate (patients with OI; midodrine 5-10 mg PO, 13 patients with OI): decreased both supine and standing heart rate

CC(C)NCC(O)COc1cccc2ccccc12 (stereo not drawn) [Propranolol]
efficacy in OI and orthostatic tachycardia [2]: effective in a number of patients

Clc1cccc(Cl)c1N=C1NCCN1 [clonidine]
tolerability in OI patients (patients with OI; clonidine 0.1 mg PO): tolerate clonidine poorly
blood pressure (patients with OI; [3]): significantly decreased blood pressure
supine and standing heart rate (patients with OI; [3]): decreased both supine and standing heart rate
